This passage reports EC50 results from US12723063B2, “GIPR-agonist compounds” (Eli Lilly and Company, priority 2019, dated 2026).

Common to all, as to experiment: cAMP functional assay (HTRF) in HEK293 cells in presence of 0.1% casein
Holding throughout (assay type): cell-based
Background: TR-FRET usually uses a lanthanide donor and a delayed reading to cut background.

Assay [1] concerns the target T1, human glucose-dependent insulinotropic peptide receptor (GIPR) (Homo sapiens, UniProt P48546).
T1 construct: expressed in transfected cells; host or cells: HEK293
T1 sequence (P48546 22-466): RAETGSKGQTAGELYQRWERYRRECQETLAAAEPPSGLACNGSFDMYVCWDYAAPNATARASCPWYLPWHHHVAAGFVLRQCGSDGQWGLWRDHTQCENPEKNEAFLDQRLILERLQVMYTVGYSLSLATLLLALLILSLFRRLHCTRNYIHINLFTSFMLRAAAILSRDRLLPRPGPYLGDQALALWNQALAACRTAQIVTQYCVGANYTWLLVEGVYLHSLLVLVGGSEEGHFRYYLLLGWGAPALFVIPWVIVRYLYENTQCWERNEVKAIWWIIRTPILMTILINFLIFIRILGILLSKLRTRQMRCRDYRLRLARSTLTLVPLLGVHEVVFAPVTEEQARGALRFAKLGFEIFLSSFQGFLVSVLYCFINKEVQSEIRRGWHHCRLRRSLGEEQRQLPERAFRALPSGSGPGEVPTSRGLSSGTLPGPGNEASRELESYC
The note with it: HEK293 cells expressing human GIPR, geometric mean, read-out: hGIPR cAMP Rel EC50 nM (SEM, n).

Assay [2] concerns the target T2, human GLP-1 receptor (GLP-1R) (Homo sapiens, UniProt P43220).
T2 construct: expressed in transfected cells; host or cells: HEK293
The note with it: HEK293 cells expressing human GLP-1R, geometric mean, read-out: hGLP1R cAMP Rel EC50 nM (SEM, n).

Assay [3] deals with T3, human glucagon receptor (GcgR) (Homo sapiens, UniProt P47871).
T3 construct: expressed in transfected cells; host or cells: HEK293
T3 sequence (P47871 26-477): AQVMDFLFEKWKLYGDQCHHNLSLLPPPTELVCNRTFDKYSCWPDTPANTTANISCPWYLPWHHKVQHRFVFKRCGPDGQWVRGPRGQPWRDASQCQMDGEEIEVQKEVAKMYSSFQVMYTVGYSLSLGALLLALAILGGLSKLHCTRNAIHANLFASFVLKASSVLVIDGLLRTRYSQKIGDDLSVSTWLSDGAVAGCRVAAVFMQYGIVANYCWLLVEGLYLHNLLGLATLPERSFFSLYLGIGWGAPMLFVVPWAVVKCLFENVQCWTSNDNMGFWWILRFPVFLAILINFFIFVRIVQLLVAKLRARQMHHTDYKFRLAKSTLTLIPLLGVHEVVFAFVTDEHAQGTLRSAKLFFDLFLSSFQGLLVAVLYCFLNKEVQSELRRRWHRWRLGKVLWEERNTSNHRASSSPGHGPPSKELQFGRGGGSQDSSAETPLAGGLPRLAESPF
The note with it: HEK293 cells expressing human GcgR, geometric mean, read-out: hGcgR cAMP Rel EC50 nM (SEM, n).

As usually defined, the EC50 is the concentration giving half of the maximal effect.

*1 amine or outer side, *2 acyl side, *3 side chain or, on linkers, in order; H or OH if unused. Where a SMILES comes first, the peptide text is derived from it. Side-chain parts run from the residue outwards. [ ]: non-standard residue; d: D form. The star is where a group is joined. C20 diacid = O=C(O)CCCCCCCCCCCCCCCCCCC(=O)*; C18 diacid = O=C(O)CCCCCCCCCCCCCCCCC(=O)*; αMePhe(2-F) = C[C@](N)(Cc1ccccc1F)C(=O)O; γGlu = O=C(O)[C@H](CCC(=O)[*:2])N[*:1]; 4Pal = N[C@@H](Cc1ccncc1)C(=O)O; αMeL = CC(C)C[C@](C)(N)C(=O)O; Orn = NCCC[C@H](N)C(=O)O; AEEA = NCCOCCOCC(=O)O; Aib = CC(C)(N)C(=O)O

T2 sequence (P43220 24-463): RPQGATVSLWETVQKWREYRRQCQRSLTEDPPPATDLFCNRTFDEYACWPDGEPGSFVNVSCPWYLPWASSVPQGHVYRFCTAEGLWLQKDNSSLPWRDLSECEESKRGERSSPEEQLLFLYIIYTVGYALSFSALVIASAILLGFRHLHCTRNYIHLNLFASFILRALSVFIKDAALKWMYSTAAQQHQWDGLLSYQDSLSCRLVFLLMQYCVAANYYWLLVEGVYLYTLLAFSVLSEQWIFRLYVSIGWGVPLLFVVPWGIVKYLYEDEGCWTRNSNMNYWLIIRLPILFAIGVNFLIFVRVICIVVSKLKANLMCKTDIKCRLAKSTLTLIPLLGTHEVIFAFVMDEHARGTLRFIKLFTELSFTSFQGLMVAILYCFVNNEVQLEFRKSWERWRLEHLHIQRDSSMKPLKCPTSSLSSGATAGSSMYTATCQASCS

Regarding `CC[C@H](C)[C@H](NC(=O)[C@H](CCCN)NC(=O)[C@H](CC(=O)O)NC(=O)[C@H](CC(C)C)NC(=O)[C@](C)(CC(C)C)NC(=O)[C@@H](NC(=O)[C@H](CO)NC(=O)[C@H](Cc1ccc(O)cc1)NC(=O)[C@H](CC(=O)O)NC(=O)[C@H](CO)NC(=O)[C@@H](NC(=O)[C@H](Cc1ccccc1)NC(=O)[C@@H](NC(=O)CNC(=O)[C@H](CCC(=O)O)NC(=O)C(C)(C)NC(=O)[C@@H](N)Cc1ccc(O)cc1)[C@@H](C)O)[C@@H](C)CC)[C@@H](C)CC)C(=O)N[C@@H](Cc1c[nH]cn1)C(=O)N[C@@H](CCC(N)=O)C(=O)NC(C)(C)C(=O)N[C@@H](CC(=O)O)C(=O)N[C@@H](Cc1ccccc1)C(=O)N[C@H](C(=O)N[C@@H](CCC(=O)O)C(=O)N[C@@H](Cc1ccncc1)C(=O)N[C@@H](CCCCNC(=O)COCCOCCNC(=O)COCCOCCNC(=O)CC[C@H](NC(=O)CCCCCCCCCCCCCCCCC(=O)O)C(=O)O)C(=O)N[C@@H](CC(C)C)C(=O)N[C@@H](CCC(=O)O)C(=O)NCC(=O)NCC(=O)N1CCC[C@H]1C(=O)N[C@@H](CO)C(=O)N[C@@H](CO)C(=O)NCC(=O)N[C@@H](C)C(=O)N1CCC[C@H]1C(=O)N1CCC[C@H]1C(=O)N1CCC[C@H]1C(=O)N[C@@H](CO)C(N)=O)C(C)C` [Example 111] (H-Y[Aib]EGTFISDYSI[αMeL]LD[Orn]IHQ[Aib]DFVE[4Pal]K([AEEA-AEEA-γGlu-C18 diacid])LEGGPSSGAPPPS-NH2), the 50% effective concentration (EC50) in assay [1] is 0.0065 nM; in assay [2] it was > 5000 nM; in assay [3], > 5000 nM.
Consider `CC[C@H](C)[C@H](NC(=O)[C@H](CO)NC(=O)[C@H](Cc1ccc(O)cc1)NC(=O)[C@H](CC(=O)O)NC(=O)[C@H](CO)NC(=O)[C@@H](NC(=O)[C@](C)(Cc1ccccc1F)NC(=O)[C@@H](NC(=O)CNC(=O)[C@H](CCC(=O)O)NC(=O)C(C)(C)NC(=O)[C@@H](N)Cc1ccc(O)cc1)[C@@H](C)O)[C@@H](C)CC)C(=O)N[C@@H](C)C(=O)N[C@@H](CC(C)C)C(=O)N[C@@H](CC(=O)O)C(=O)N[C@@H](CCCCN)C(=O)N[C@H](C(=O)N[C@@H](Cc1c[nH]cn1)C(=O)N[C@@H](CCC(N)=O)C(=O)NC(C)(C)C(=O)N[C@@H](CC(=O)O)C(=O)N[C@@H](Cc1ccccc1)C(=O)N[C@H](C(=O)N[C@@H](CCC(=O)O)C(=O)N[C@@H](Cc1ccncc1)C(=O)N[C@@H](CCCCNC(=O)COCCOCCNC(=O)COCCOCCNC(=O)CC[C@H](NC(=O)CCCCCCCCCCCCCCCCCCC(=O)O)C(=O)O)C(=O)N[C@@H](CC(C)C)C(=O)N[C@@H](CCC(=O)O)C(=O)NCC(=O)NCC(=O)N1CCC[C@H]1C(=O)N[C@@H](CO)C(=O)N[C@@H](CO)C(=O)NCC(=O)N[C@@H](C)C(=O)N1CCC[C@H]1C(=O)N1CCC[C@H]1C(=O)N1CCC[C@H]1C(=O)N[C@@H](CO)C(N)=O)C(C)C)[C@@H](C)CC` [Example 112] (H-Y[Aib]EGT[αMePhe(2-F)]ISDYSIALDKIHQ[Aib]DFVE[4Pal]K([AEEA-AEEA-γGlu-C20 diacid])LEGGPSSGAPPPS-NH2), for which the 50% effective concentration (EC50) in assay [1] was 0.0041 nM; in assay [2], > 5000 nM; in assay [3], > 5000 nM.
In the case of `CC[C@H](C)[C@H](NC(=O)[C@H](CO)NC(=O)[C@H](Cc1ccc(O)cc1)NC(=O)[C@H](CC(=O)O)NC(=O)[C@H](CO)NC(=O)[C@@H](NC(=O)[C@](C)(Cc1ccccc1F)NC(=O)[C@@H](NC(=O)CNC(=O)[C@H](CCC(=O)O)NC(=O)C(C)(C)NC(=O)[C@@H](N)Cc1ccc(O)cc1)[C@@H](C)O)[C@@H](C)CC)C(=O)N[C@@H](C)C(=O)N[C@@H](CC(C)C)C(=O)N[C@@H](CC(=O)O)C(=O)N[C@@H](CCCCN)C(=O)N[C@H](C(=O)N[C@@H](Cc1c[nH]cn1)C(=O)N[C@@H](CCC(N)=O)C(=O)NC(C)(C)C(=O)N[C@@H](CC(=O)O)C(=O)N[C@@H](Cc1ccccc1)C(=O)N[C@H](C(=O)N[C@@H](CCC(=O)O)C(=O)N[C@@H](Cc1ccncc1)C(=O)N[C@@H](CCCCNC(=O)COCCOCCNC(=O)COCCOCCNC(=O)CC[C@H](NC(=O)CCCCCCCCCCCCCCCCCCC(=O)O)C(=O)O)C(=O)N[C@@H](CC(C)C)C(=O)N[C@@H](CCC(=O)O)C(=O)N[C@@H](C)C(=O)NCC(=O)N1CCC[C@H]1C(=O)N[C@@H](CO)C(=O)N[C@@H](CO)C(=O)NCC(=O)N[C@@H](C)C(=O)N1CCC[C@H]1C(=O)N1CCC[C@H]1C(=O)N1CCC[C@H]1C(=O)N[C@@H](CO)C(N)=O)C(C)C)[C@@H](C)CC` [Example 113] (H-Y[Aib]EGT[αMePhe(2-F)]ISDYSIALDKIHQ[Aib]DFVE[4Pal]K([AEEA-AEEA-γGlu-C20 diacid])LEAGPSSGAPPPS-NH2), the concentration giving a half-maximal response (EC50) in assay [1] was 0.0142 nM; in assay [2] it was > 5000 nM; in assay [3] it was > 5000 nM.
For `CC[C@H](C)[C@H](NC(=O)[C@H](CO)NC(=O)[C@H](Cc1ccc(O)cc1)NC(=O)[C@H](CC(=O)O)NC(=O)[C@H](CO)NC(=O)[C@@H](NC(=O)[C@](C)(Cc1ccccc1F)NC(=O)[C@@H](NC(=O)CNC(=O)[C@H](CCC(=O)O)NC(=O)C(C)(C)NC(=O)[C@@H](N)Cc1ccc(O)cc1)[C@@H](C)O)[C@@H](C)CC)C(=O)N[C@@H](C)C(=O)N[C@@H](CC(C)C)C(=O)N[C@@H](CC(=O)O)C(=O)N[C@@H](CCCCN)C(=O)N[C@H](C(=O)N[C@@H](Cc1c[nH]cn1)C(=O)N[C@@H](CCC(N)=O)C(=O)NC(C)(C)C(=O)N[C@@H](CC(=O)O)C(=O)N[C@@H](Cc1ccccc1)C(=O)N[C@H](C(=O)N[C@@H](CCC(=O)O)C(=O)N[C@@H](Cc1ccncc1)C(=O)N[C@@H](CCCCNC(=O)COCCOCCNC(=O)COCCOCCNC(=O)CC[C@H](NC(=O)CCCCCCCCCCCCCCCCCCC(=O)O)C(=O)O)C(=O)N[C@@H](CC(C)C)C(=O)N[C@@H](CCC(=O)O)C(=O)N[C@@H](CCC(N)=O)C(=O)NCC(=O)N1CCC[C@H]1C(=O)N[C@@H](CO)C(=O)N[C@@H](CO)C(=O)NCC(=O)N[C@@H](C)C(=O)N1CCC[C@H]1C(=O)N1CCC[C@H]1C(=O)N1CCC[C@H]1C(=O)N[C@@H](CO)C(N)=O)C(C)C)[C@@H](C)CC` [Example 114] (H-Y[Aib]EGT[αMePhe(2-F)]ISDYSIALDKIHQ[Aib]DFVE[4Pal]K([AEEA-AEEA-γGlu-C20 diacid])LEQGPSSGAPPPS-NH2), the EC50 is 0.0075 nM in assay [1], > 5000 nM in assay [2] and > 5000 nM in assay [3].
Turning to `CC[C@H](C)[C@H](NC(=O)[C@H](CCCCN)NC(=O)[C@H](CC(=O)O)NC(=O)[C@H](CC(C)C)NC(=O)[C@](C)(CC(C)C)NC(=O)[C@@H](NC(=O)[C@H](CO)NC(=O)[C@H](Cc1ccc(O)cc1)NC(=O)[C@H](CC(=O)O)NC(=O)[C@H](CO)NC(=O)[C@@H](NC(=O)[C@H](Cc1ccccc1)NC(=O)[C@@H](NC(=O)CNC(=O)[C@H](CCC(=O)O)NC(=O)C(C)(C)NC(=O)[C@@H](N)Cc1ccc(O)cc1)[C@@H](C)O)[C@@H](C)CC)[C@@H](C)CC)C(=O)N[C@@H](CCCNC(=N)N)C(=O)N[C@@H](CCC(N)=O)C(=O)NC(C)(C)C(=O)N[C@@H](CC(=O)O)C(=O)N[C@@H](Cc1ccccc1)C(=O)N[C@H](C(=O)N[C@@H](CCC(=O)O)C(=O)N[C@@H](Cc1ccc(O)cc1)C(=O)N[C@@H](CCCCNC(=O)COCCOCCNC(=O)COCCOCCNC(=O)CC[C@H](NC(=O)CCCCCCCCCCCCCCCCCCC(=O)O)C(=O)O)C(=O)N[C@@H](CC(C)C)C(=O)N[C@@H](CCC(=O)O)C(=O)NCC(=O)NCC(=O)N1CCC[C@H]1C(=O)N[C@@H](CO)C(=O)N[C@@H](CO)C(=O)NCC(=O)N[C@@H](C)C(=O)N1CCC[C@H]1C(=O)N1CCC[C@H]1C(=O)N1CCC[C@H]1C(=O)N[C@@H](CO)C(N)=O)C(C)C` [Example 115] (H-Y[Aib]EGTFISDYSI[αMeL]LDKIRQ[Aib]DFVEYK([AEEA-AEEA-γGlu-C20 diacid])LEGGPSSGAPPPS-NH2), the EC50 is 0.0372 nM in assay [1], > 5000 nM in assay [2] and > 5000 nM in assay [3].
As to `CC[C@H](C)[C@H](NC(=O)[C@H](CCCN)NC(=O)[C@H](CC(=O)O)NC(=O)[C@H](CC(C)C)NC(=O)[C@](C)(CC(C)C)NC(=O)[C@@H](NC(=O)[C@H](CO)NC(=O)[C@H](Cc1ccc(O)cc1)NC(=O)[C@H](CC(=O)O)NC(=O)[C@H](CO)NC(=O)[C@@H](NC(=O)[C@H](Cc1ccccc1)NC(=O)[C@@H](NC(=O)CNC(=O)[C@H](CCC(=O)O)NC(=O)C(C)(C)NC(=O)[C@@H](N)Cc1ccc(O)cc1)[C@@H](C)O)[C@@H](C)CC)[C@@H](C)CC)C(=O)N[C@@H](CCCNC(=N)N)C(=O)N[C@@H](CCC(N)=O)C(=O)NC(C)(C)C(=O)N[C@@H](CC(=O)O)C(=O)N[C@@H](Cc1ccccc1)C(=O)N[C@H](C(=O)N[C@@H](CCC(=O)O)C(=O)N[C@@H](Cc1ccc(O)cc1)C(=O)N[C@@H](CCCCNC(=O)COCCOCCNC(=O)COCCOCCNC(=O)CC[C@H](NC(=O)CCCCCCCCCCCCCCCCCCC(=O)O)C(=O)O)C(=O)N[C@@H](CC(C)C)C(=O)N[C@@H](CCC(=O)O)C(=O)NCC(=O)NCC(=O)N1CCC[C@H]1C(=O)N[C@@H](CO)C(=O)N[C@@H](CO)C(=O)NCC(=O)N[C@@H](C)C(=O)N1CCC[C@H]1C(=O)N1CCC[C@H]1C(=O)N1CCC[C@H]1C(=O)N[C@@H](CO)C(N)=O)C(C)C` [Example 116] (H-Y[Aib]EGTFISDYSI[αMeL]LD[Orn]IRQ[Aib]DFVEYK([AEEA-AEEA-γGlu-C20 diacid])LEGGPSSGAPPPS-NH2), the EC50 was 0.028 nM in assay [1], > 5000 nM in assay [2] and > 5000 nM in assay [3].
